US7368279B2, “Three dimensional bioengineered smooth muscle tissue and sphincters and methods therefor” (The Regents of The University of Michigan, priority 2004, dated 2008)
Entries after “also recorded” stand apart in the source; their conditions may differ.

Tested on: bioengineered IAS rings
Assay: Isometric force (contraction/relaxation) of bioengineered IAS rings
Type: cell-based, rabbit
Procedure: Excitability and contractility of bioengineered IAS rings was measured using techniques adapted from previous work (Dennis et al., In Vitro Cellular & Developmental Biology Animal 36: 327-335, 2000. Dennis et al., American Journal of Physiology Cell Physiology 280: C288-C295, 2001). The diameter of the sphincter rings was measured and used to calculate cross-sectional area (CSA). The bioengineered sphincters were separated from their molds using forceps (FIG. 1 Panel E) and the minimum ring diameter was measured using a calibrated eyepiece and a 5× or 10× objective lens on an inverted microscope (Zeiss Axiovert 25, Thornwood, N.Y.). The cross section was circular, and therefore the CSA was calculated using the measured diameter. To measure the passive baseline force, the differentiation media in the plate containing the bioengineered sphincter was replaced with 37° C. Krebs solution (NaCl (119 mM), KCl (4.6 mM), NaHCO3 (15 mM), CaCl2 (1.5 mM), MgCl2 (1.2 mM), […], and glucose (11 mM)) and the plate was placed on a heated aluminum platform, which maintained a temperature of 37° C. until the testing was complete. For contractility measurements, one end of the bioengineered sphincter was anchored by a stainless steel pin (10 mm×0.1 mm diameter) to the PDMS substrate within the plate, while another stainless steel pin was bent in the shape of a hook and attached by canning wax to a force transducer (resolution of 1.4 μN and range of 2mN) as previously described (Dennis et al., In Vitro Cellular & Developmental Biology Animal 36: 327-335, 2000, Macpherson et al., J Physiol 500: 523-533, 1997) and as depicted in FIG. 1 (Panels F and G). The bioengineered sphincter was stretched approximately 50% of its resting length using a three-axis micromanipulator. The ring was allowed to sit for 20 minutes in order to reestablish a stable baseline level of force (Pb), which was measured as the average baseline passive force preceding stimulation. All force measurements were collected at 100 samples/second for 60 seconds and recorded using a computer with LabVIEW data acquisition software (National Instruments, Austin, Tex.). A median filter of rank 2 was applied to all raw force data before being stored to minimize digitization noise without causing a phase delay for rapidly changing forces. The peak isometric force (ΔP) was determined by subtracting the Pb from the total force values. Specific force (sΔP) was calculated by dividing ΔP by the CSA. Data analysis was done using LabVIEW and Microsoft Excel software programs. Each measurement was repeated at least three times and the mean value was recorded. Contractions were induced in the rings by the addition of acetylcholine. Dose-response relationships of acetylcholine were investigated in the range of 10^−6M to 10^−10M. Incremental doses of acetylcholine were added after the maximal response of the preceding concentration and the establishment of a new baseline. Relaxation response in the rings was induced by the addition of 8-Bromoadenosine 3′:5′-Cyclic Monophosphate (8-br-cAMP). Maximal relaxation was achieved after approximately 4 minutes and therefore relaxation measurements are collective of four consecutive 1-minute data recordings.

Nc1ncnc2c1nc(Br)n2[C@@H]1O[C@@H]2COP(=O)(O)O[C@H]2[C@H]1O [8-br-cAMP, 8-Bromoadenosine 3′:5′-Cyclic Monophosphate]
relaxation of acetylcholine-induced contraction (10^−5 M 8-br-cAMP added after 10^−6 M acetylcholine, Krebs buffer): rapid relaxation; also recorded: immediate relaxation | ΔP (relaxation response) (10^−5 M 8-br-cAMP, 4 minutes, 0 Ca2+/2 mM EGTA Krebs): −23±4 μN | average ΔP (relaxation from basal tone) (10^−5 M 8-br-cAMP, 4 minutes, Krebs buffer): −16.3±2.0 μN
